Assays:
Pythium ultimum = Pythium ultimum / liquid culture (seedling damping off); type: cell-based; conditions: Globisporangium ultimum; 200 ppm; potato dextrose broth, 24° C., 2-3 days after application; read-out: disease control (inhibition of growth determined photometrically)
[1] = test system: Glomerella lagenarium (Colletotrichum lagenarium); experiment: Glomerella lagenarium (Colletotrichum lagenarium) / liquid culture (anthracnose); type: cell-based; conditions: Colletotrichum orbiculare, PDB potato dextrose broth, 24° C., 3-4 days after application, read-out: disease control (inhibition of growth measured photometrically)
Procedure: 11. Glomerella lagenarium (Colletotrichum lagenarium)/Liquid Culture (Anthracnose): Conidia of the fungus from cryogenic storage were directly mixed into nutrient broth (PDB potato dextrose broth). After placing a DMSO solution of test compound into a 96-well microtiter plate at an application rate of 200 ppm, the nutrient broth containing the fungal spores was added. The test plates were incubated at 24° C. and the inhibition of growth was measured photometrically 3-4 days after application.

[2] = test system: Mycosphaerella arachidis (Cercospora arachidicola); experiment: Mycosphaerella arachidis (Cercospora arachidicola) / liquid culture (early leaf spot); type: cell-based; conditions: PDB potato dextrose broth, 24° C., 4-5 days after application, read-out: disease control (inhibition of growth determined photometrically)
Procedure: 12. Mycosphaerella arachidis (Cercospora arachidicola)/Liquid Culture (Early Leaf Spot): Conidia of the fungus from cryogenic storage were directly mixed into nutrient broth (PDB potato dextrose broth). After placing a DMSO solution of test compound into a 96-well microtiter plate at an application rate of 200 ppm, the nutrient broth containing the fungal spores was added. The test plates were incubated at 24° C. and the inhibition of growth was determined photometrically 4-5 days after application.

[3] = test system: Mycosphaerella graminicola (Septoria tritici); experiment: Mycosphaerella graminicola (Septoria tritici) / liquid culture (Septoria blotch); type: cell-based; conditions: Zymoseptoria tritici, PDB potato dextrose broth, 24° C., 4-5 days after application, read-out: disease control (inhibition of growth determined photometrically)
Procedure: 13. Mycosphaerella graminicola (Septoria tritici)/Liquid Culture (Septoria Blotch): Conidia of the fungus from cryogenic storage were directly mixed into nutrient broth (PDB potato dextrose broth). After placing a DMSO solution of test compound into a 96-well microtiter plate at an application rate of 200 ppm, the nutrient broth containing the fungal spores was added. The test plates were incubated at 24° C. and the inhibition of growth was determined photometrically 4-5 days after application.

[4] = test system: Monographella nivalis (Microdochium nivale); experiment: Monographella nivalis (Microdochium nivale) / liquid culture (foot rot cereals); type: cell-based; conditions: PDB potato dextrose broth, 24° C., 4-5 days after application, read-out: disease control (inhibition of growth determined photometrically)
[5] = test system: Thanatephorus cucumeris (Rhizoctonia solani); experiment: Thanatephorus cucumeris (Rhizoctonia solani) / liquid culture (foot rot, damping-off); type: cell-based; conditions: PDB potato dextrose broth, 24° C., 3-4 days after application, read-out: disease control (inhibition of growth determined photometrically)
Procedure: 17. Thanatephorus cucumeris (Rhizoctonia solani)/Liquid Culture (Foot Rot, Damping-Off): Mycelia fragments of a newly grown liquid culture of the fungus were directly mixed into nutrient broth (PDB potato dextrose broth). After placing a DMSO solution of the test compounds into a 96-well microtiter plate at an application rate of 200 ppm, the nutrient broth containing the fungal material was added. The test plates were incubated at 24° C. and the inhibition of growth was determined photometrically 3-4 days after application.

Plasmopara viticola = experiment: whole plant or invertebrate; type: in vivo; conditions: foliar, read-out: disease control
Gaeumannomyces graminis = Gaeumannomyces graminis / liquid culture (take-all of cereals); type: cell-based; conditions: PDB potato dextrose broth, 24° C., 4-5 days after application, read-out: disease control (inhibition of growth determined photometrically)
Outline: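 Cryo-stored mycelial fragments in potato dextrose broth exposed to compound in DMSO at 200 ppm. Incubated at 24 °C; growth inhibition read photometrically 4–5 days after application.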

CCCCSCCOC(=O)c1cc2c(cc1Cl)COB2O [Compound 198]
≥ 80%: inhibition at 200 ppm (Pythium ultimum) | inhibition at 200 ppm [1] | inhibition at 200 ppm [2] | inhibition at 200 ppm [3] | inhibition at 200 ppm [4] | inhibition at 200 ppm [5]

O=C(OCCF)c1ccc2c(c1)B(O)OC2 [Compound 360]
≥ 80%: pest or weed control at 200 ppm (Plasmopara viticola) | inhibition at 200 ppm (Pythium ultimum) | inhibition at 200 ppm [1] | inhibition at 200 ppm [2] | inhibition at 200 ppm [5]

COCCOC(=O)c1cc2c(cc1F)COB2O [Compound 412]
≥ 80%: pest or weed control at 200 ppm (Plasmopara viticola) | inhibition at 200 ppm (Pythium ultimum) | inhibition at 200 ppm [1] | inhibition at 200 ppm [2] | inhibition at 200 ppm [4] | inhibition at 200 ppm [5]

COc1ccc(OCCOC(=O)c2cc3c(cc2Cl)COB3O)cc1 [Compound 218]
≥ 80%: inhibition at 200 ppm (Pythium ultimum) | inhibition at 200 ppm [1] | inhibition at 200 ppm [2] | inhibition at 200 ppm [3] | inhibition at 200 ppm (Gaeumannomyces graminis) | inhibition at 200 ppm [4] | inhibition at 200 ppm [5]

O=C(OCCOc1ccc(Cl)cc1)c1cc2c(cc1F)COB2O [Compound 414]
≥ 80%: inhibition at 200 ppm (Pythium ultimum) | inhibition at 200 ppm [1] | inhibition at 200 ppm [2] | inhibition at 200 ppm [3] | inhibition at 200 ppm (Gaeumannomyces graminis) | inhibition at 200 ppm [4] | inhibition at 200 ppm [5]

Cn1cc(CCCOC(=O)c2ccc3c(c2)B(O)OC3)cn1 [Compound 345]
≥ 80%: pest or weed control at 200 ppm (Plasmopara viticola) | inhibition at 200 ppm (Pythium ultimum) | inhibition at 200 ppm [1] | inhibition at 200 ppm [2] | inhibition at 200 ppm (Gaeumannomyces graminis) | inhibition at 200 ppm [5]

C#CC(CC)OC(=O)c1cc2c(cc1F)COB2O (stereo not drawn) [Compound 387]
≥ 80%: inhibition at 200 ppm (Pythium ultimum) | inhibition at 200 ppm [1] | inhibition at 200 ppm [3] | inhibition at 200 ppm (Gaeumannomyces graminis) | inhibition at 200 ppm [4] | inhibition at 200 ppm [5]

CCCCCCCOC(=O)c1cc2c(cc1F)COB2O [Compound 378]
≥ 80%: inhibition at 200 ppm (Pythium ultimum) | inhibition at 200 ppm [1] | inhibition at 200 ppm [2] | inhibition at 200 ppm [3] | inhibition at 200 ppm (Gaeumannomyces graminis) | inhibition at 200 ppm [4] | inhibition at 200 ppm [5]

O=C(OCC(F)(F)Cl)c1cc2c(cc1Cl)COB2O [Compound 192]
≥ 80%: pest or weed control at 200 ppm (Plasmopara viticola) | inhibition at 200 ppm (Pythium ultimum) | inhibition at 200 ppm [1] | inhibition at 200 ppm [3] | inhibition at 200 ppm (Gaeumannomyces graminis) | inhibition at 200 ppm [4] | inhibition at 200 ppm [5]

O=C(OCc1ccc(-c2ccccc2)cc1)c1cc2c(cc1F)COB2O [Compound 385]
≥ 80%: inhibition at 200 ppm [1] | inhibition at 200 ppm [2] | inhibition at 200 ppm [3] | inhibition at 200 ppm (Gaeumannomyces graminis) | inhibition at 200 ppm [4] | inhibition at 200 ppm [5]

O=C(OCCC(F)(F)F)c1cc2c(cc1Cl)COB2O [Compound 238]
≥ 80%: pest or weed control at 200 ppm (Plasmopara viticola) | inhibition at 200 ppm (Pythium ultimum) | inhibition at 200 ppm [1] | inhibition at 200 ppm [3] | inhibition at 200 ppm (Gaeumannomyces graminis) | inhibition at 200 ppm [4] | inhibition at 200 ppm [5]

O=C(OCc1cccc(F)c1)c1cc2c(cc1Cl)COB2O [Compound 241]
≥ 80%: inhibition at 200 ppm (Pythium ultimum) | inhibition at 200 ppm [1] | inhibition at 200 ppm [2] | inhibition at 200 ppm [3] | inhibition at 200 ppm (Gaeumannomyces graminis) | inhibition at 200 ppm [4] | inhibition at 200 ppm [5]

O=C(OCCCCc1ccc2ccccc2c1)c1cc2c(cc1Cl)COB2O [Compound 227]
≥ 80%: inhibition at 200 ppm [1] | inhibition at 200 ppm [3] | inhibition at 200 ppm [4] | inhibition at 200 ppm [5]

C#CCCCOC(=O)c1cc2c(cc1F)COB2O [Compound 395]
≥ 80%: pest or weed control at 200 ppm (Plasmopara viticola) | inhibition at 200 ppm (Pythium ultimum) | inhibition at 200 ppm [1] | inhibition at 200 ppm [2] | inhibition at 200 ppm (Gaeumannomyces graminis) | inhibition at 200 ppm [4] | inhibition at 200 ppm [5]

O=C(OCc1ccc(-c2ccccc2)cc1)c1ccc2c(c1)B(O)OC2 [Compound 325]
≥ 80%: inhibition at 200 ppm [1] | inhibition at 200 ppm [2] | inhibition at 200 ppm [3] | inhibition at 200 ppm (Gaeumannomyces graminis) | inhibition at 200 ppm [4]

COc1ccc(OCCOC(=O)c2cc3c(cc2F)COB3O)cc1 [Compound 406]
≥ 80%: inhibition at 200 ppm (Pythium ultimum) | inhibition at 200 ppm [1] | inhibition at 200 ppm [2] | inhibition at 200 ppm [3] | inhibition at 200 ppm (Gaeumannomyces graminis) | inhibition at 200 ppm [4] | inhibition at 200 ppm [5]

Cn1cc(CCCOC(=O)c2cc3c(cc2F)COB3O)cn1 [Compound 407]
≥ 80%: inhibition at 200 ppm (Pythium ultimum) | inhibition at 200 ppm [1] | inhibition at 200 ppm [2] | inhibition at 200 ppm [5]

CCCCCCCOC(=O)c1cc2c(cc1Cl)COB2O [Compound 195]
≥ 80%: inhibition at 200 ppm [1] | inhibition at 200 ppm [2] | inhibition at 200 ppm [3] | inhibition at 200 ppm (Gaeumannomyces graminis) | inhibition at 200 ppm [4] | inhibition at 200 ppm [5]

C=C(C)COC(=O)c1cc2c(cc1Cl)COB2O [Compound 214]
≥ 80%: inhibition at 200 ppm (Pythium ultimum) | inhibition at 200 ppm [1] | inhibition at 200 ppm [2] | inhibition at 200 ppm [3] | inhibition at 200 ppm (Gaeumannomyces graminis) | inhibition at 200 ppm [4] | inhibition at 200 ppm [5]

CCCCSCCOC(=O)c1cc2c(cc1F)COB2O [Compound 384]
≥ 80%: inhibition at 200 ppm (Pythium ultimum) | inhibition at 200 ppm [1] | inhibition at 200 ppm [2] | inhibition at 200 ppm [3] | inhibition at 200 ppm [4] | inhibition at 200 ppm [5]

O=C(OCc1ccc(C(F)(F)F)cc1Cl)c1cc2c(cc1F)COB2O [Compound 386]
≥ 80%: inhibition at 200 ppm (Pythium ultimum) | inhibition at 200 ppm [1] | inhibition at 200 ppm [2] | inhibition at 200 ppm (Gaeumannomyces graminis) | inhibition at 200 ppm [4] | inhibition at 200 ppm [5]

O=C(OCC1CCSCC1)c1cc2c(cc1Cl)COB2O [Compound 196]
≥ 80%: pest or weed control at 200 ppm (Plasmopara viticola) | inhibition at 200 ppm (Pythium ultimum) | inhibition at 200 ppm [1] | inhibition at 200 ppm [3] | inhibition at 200 ppm (Gaeumannomyces graminis) | inhibition at 200 ppm [4]
